The supplement of paper PMC4862054

What was measured:
Conditions in all cases: incubation time: 72 h
MDA-MB-231 = test: drug sensitivity score (DSS), CellTox Green (DSS (AUC-based score)); higher = stronger drug effect (viability inhibition or cytotoxicity); extreme values may be limits of the assay
Method in brief: (§1)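 The drug sensitivity score was computed from the area under the fitted dose-response curve. Breast cancer cell lines in 20 µl suspension went into 384-well plates holding compound at 5 concentrations (10-fold steps over a 10,000-fold, compound-specific range) for 72 h of incubation. CellTox Green fluorescence (485/520 nm) was read before CellTiter-Glo luminescence, the latter after 10 min at room temperature, and each plate was normalised to 0.1 % DMSO and a positive kill control.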

CAL-85-1 [1] = test: as above
Method in brief: as §1

DU-4475 = test: as above
Method in brief: as §1

MFM-223 = test: as above
Method in brief: as §1

CAL-51 = test: as above
Method in brief: as §1

MDA-MB-436 [2] = test: as above
Method in brief: as §1

MDA-MB-453 [3] = test: as above
Method in brief: as §1

MCF-10A = test: as above
Method in brief: as §1

CAL-120 [4] = test: as above
Method in brief: as §1

HCC1937 [5] = test: as above
Method in brief: as §1

HCC1143 [6] = test: as above
Method in brief: as §1

BT-474 [7] = test: as above
Method in brief: as §1

HCC1599 = test: as above
Method in brief: as §1

BT-549 [8] = test: as above
Method in brief: as §1

CAL-85-1 [9] = test: normalised viability (% of control), CellTiter-Blue; higher = more viable cells (about 100 = DMSO control)
Method in brief: (§2)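 Normalised viability is given for a single listed concentration of the series. In 384-well plates, breast cancer cell lines were incubated 72 h with compound, then read with CellTiter-Blue (2 h, 37 °C) at 560/590 nm. Per-plate scaling set vehicle to 100 and a positive kill control to 0, with Z'-factor quality control.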

CAL-148 = test: as above
Method in brief: as §2

HDQ-P1 = test: as above
Method in brief: as §2

MDA-MB-436 [10] = test: as above
Method in brief: as §2

MDA-MB-453 [11] = test: as above
Method in brief: as §2

MDA-MB-468 = test: as above
Method in brief: as §2

CAL-120 [12] = test: as above
Method in brief: as §2

HCC1937 [13] = test: as above
Method in brief: as §2

HCC1143 [14] = test: as above
Method in brief: as §2

BT-474 [15] = test: as above
Method in brief: as §2

BT-549 [16] = test: as above
Method in brief: as §2

O=C(c1cc(Cc2n[nH]c(=O)c3ccccc23)ccc1F)N1CCN(C(=O)C2CC2)CC1 [Olaparib]
Conditions | drug sensitivity score
BT-474 [7] | 0
BT-549 [8] | 0
CAL-51 | 3.38
CAL-85-1 [1] | 0
CAL-120 [4] | 0
DU-4475 | 0
HCC1143 [6] | 0
HCC1599 | 0
HCC1937 [5] | 0
MCF-10A | 0
MDA-MB-231 | 1.54
MDA-MB-436 [2] | 8.45
MDA-MB-453 [3] | 0
MFM-223 | 0

normalised viability [%]
Conditions | 3 nM | 10 nM | 30 nM | 100 nM | 1000 nM | 10000 nM
BT-474 [15] | – | 109 | – | – | 104 | 98.2
BT-549 [16] | – | 95 | – | – | 90.8 | 84.9
CAL-85-1 [9] | 87.7 | – | 74 | 90.5 | – | –
CAL-120 [12] | – | 78.7 | – | – | 80.5 | 68.6
CAL-148 | 76.5 | – | 87.8 | 83.3 | – | –
HCC1143 [14] | – | 81.6 | – | – | 92.9 | 80.2
HCC1937 [13] | – | 78.5 | – | – | 58.4 | 51.2
HDQ-P1 | 95.6 | – | 102 | 103 | – | –
MDA-MB-436 [10] | – | 113 | – | – | 105 | 95.6
MDA-MB-453 [11] | 109 | – | 92.3 | 100 | – | –
MDA-MB-468 | – | 102 | – | – | 89.8 | 65.8

O=C(O)CC[C@H]1CC[C@@](c2cc(F)ccc2F)(S(=O)(=O)c2ccc(Cl)cc2)CC1 [MK-0752]
Conditions | drug sensitivity score
BT-474 [7] | 0
BT-549 [8] | 0
CAL-51 | 0
CAL-85-1 [1] | 1.74
CAL-120 [4] | 0
DU-4475 | 0
HCC1143 [6] | 0
HCC1599 | 0
HCC1937 [5] | 0
MCF-10A | 0
MDA-MB-231 | 0
MDA-MB-436 [2] | 0
MDA-MB-453 [3] | 1.23
MFM-223 | 0

normalised viability [%]
Conditions | 0.3 nM | 1 nM | 3 nM | 10 nM | 100 nM | 1000 nM
BT-474 [15] | – | 121 | – | – | 128 | 134
BT-549 [16] | – | 93.4 | – | – | 80.3 | 99.1
CAL-85-1 [9] | 98.7 | – | 82.4 | 103 | – | –
CAL-120 [12] | – | 90.2 | – | – | 97.2 | 95.7
CAL-148 | 99.1 | – | 109 | 111 | – | –
HCC1143 [14] | – | 81.5 | – | – | 108 | 89.4
HCC1937 [13] | – | 96 | – | – | 86.9 | 92.1
HDQ-P1 | 122 | – | 96.5 | 115 | – | –
MDA-MB-436 [10] | – | 109 | – | – | 92.2 | 111
MDA-MB-453 [11] | 113 | – | 107 | 125 | – | –
MDA-MB-468 | – | 98.9 | – | – | 94.9 | 110

CC[C@@H]1C(=O)N(C)c2cnc(Nc3ccc(C(=O)N[C@H]4CC[C@H](N5CCN(CC6CC6)CC5)CC4)cc3OC)nc2N1C(C)C [Volasertib]
Conditions | drug sensitivity score
BT-474 [7] | 0
BT-549 [8] | 3.98
CAL-51 | 14.5
CAL-85-1 [1] | 8.26
CAL-120 [4] | 0
DU-4475 | 0
HCC1143 [6] | 14.8
HCC1599 | 0
HCC1937 [5] | 17.3
MCF-10A | 19.4
MDA-MB-231 | 3.33
MDA-MB-436 [2] | 0
MDA-MB-453 [3] | 0
MFM-223 | 14.5

normalised viability [%]
Conditions | 0.3 nM | 1 nM | 3 nM | 10 nM | 100 nM | 1000 nM
BT-474 [15] | – | 127 | – | – | 56.6 | 96.8
BT-549 [16] | – | 94.9 | – | – | 36.9 | 41.6
CAL-85-1 [9] | 96.4 | – | 86.7 | 82.3 | – | –
CAL-120 [12] | – | 91.1 | – | – | 26.8 | 24.7
CAL-148 | 98.2 | – | 94.8 | 72 | – | –
HCC1143 [14] | – | 86.3 | – | – | 41.2 | 41.2
HCC1937 [13] | – | 131 | – | – | 30.8 | 34.9
HDQ-P1 | 108 | – | 84 | 76.4 | – | –
MDA-MB-436 [10] | – | 113 | – | – | 83.5 | 80.8
MDA-MB-453 [11] | 117 | – | 89.9 | 46.2 | – | –
MDA-MB-468 | – | 104 | – | – | 45 | 51.9
